In brackets after ≈: the same amount, converted by molar mass. Like-named read-outs stand apart in the source and are kept apart here. Non-standard residues stand in square brackets, D forms with d. Residues, ends and D or L forms follow the SMILES beside them. *: point of attachment. Lys(Me2) = CN(C)CCCC[C@H](N)C(=O)O; Octanoyl = CCCCCCCC(=O)*
Experiments:
[1] = system: S. aureus ATCC 29213; format: cell-based, Staphylococcus aureus; conditions: ATCC 29213, 18 h
Description: (§1) The in vitro antibacterial activity of the UTBLPs was assessed against wild-type and clinically isolated bacterial strains. To obtain the MIC of the compounds, the microbroth dilution susceptibility assay was performed according to the Clinical and Laboratory Standards Institute (CLSI, Wayne, PA, USA) guidelines and as previously described. Briefly, the compounds at varying concentrations were incubated with bacterial inoculum (5 × 10^5 CFU/mL final concentration) at 37 °C for 18 h. Growth in the form of turbidity was confirmed using an EMax Plus microplate reader (Molecular Devices, San Jose, CA, USA) at 590 nm.

[2] = system: MRSA ATCC 33592; format: cell-based, Staphylococcus aureus; conditions: ATCC 33592, 18 h
Description: as §1

[3] = system: E. coli ATCC 25922; format: cell-based, Escherichia coli; conditions: ATCC 25922, 18 h
Description: as §1

[4] = system: E. faecalis ATCC 29212; format: cell-based, Enterococcus faecalis
In short: (§2)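 Checkerboard synergy assay: antibiotic and OMP combined at varying concentrations with 5 × 10^5 CFU/mL inoculum (final), 37 °C, 18 h; growth read as turbidity at 590 nm. FICI = sum of FICs (MIC in combination / MIC alone); ≤0.5 synergistic, 0.5–4 additive, >4 antagonistic.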

[5] = system: K. pneumoniae 113250; test: microbe, parasite or virus in culture; format: cell-based, Klebsiella pneumoniae; conditions: 113250, 18 h
In short: (§3)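 Minimum inhibitory concentration came from a CLSI broth dilution assay: 18 h at 37 °C, inoculum 5 × 10^5 CFU/mL final.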

[6] = system: E. coli 94393; format: cell-based, Escherichia coli; conditions: for MICUTBLP: UTBLP alone
In short: as §2

[7] = system: E. coli 94474; format: cell-based, Escherichia coli; conditions: for MICUTBLP: UTBLP alone
In short: as §2

[8] = system: E. coli ATCC 25922; format: cell-based, Escherichia coli; conditions: for MICUTBLP: UTBLP alone
In short: as §2

[9] = system: A. baumannii ATCC 17978; format: cell-based, Acinetobacter baumannii; conditions: ATCC 17978, 18 h
Description: as §1

[10] = system: MSSE 81388; format: cell-based, Staphylococcus epidermidis; conditions: 18 h
Description: as §1

[11] = system: MRSE 61589; format: cell-based, Staphylococcus epidermidis; conditions: 61589, 18 h
Description: as §1

[12] = system: E. coli 94393; test: microbe, parasite or virus in culture; format: cell-based, Escherichia coli; conditions: 94393, 18 h
In short: as §3

[13] = system: E. coli 94474; test: microbe, parasite or virus in culture; format: cell-based, Escherichia coli; conditions: 94474, 18 h
In short: as §3

[14] = system: A. baumannii AB027; format: cell-based, Acinetobacter baumannii; conditions: for MICUTBLP: UTBLP alone
In short: as §2

[15] = system: A. baumannii 92247; format: cell-based, Acinetobacter baumannii; conditions: for MICUTBLP: UTBLP alone
In short: as §2

[16] = system: E. faecium ATCC 27270; format: cell-based, Enterococcus faecium
In short: as §2

[17] = UTBLP alone, plate with chloramphenicol
[18] = UTBLP in combination with chloramphenicol
[19] = chloramphenicol in combination with the UTBLP
[20] = UTBLP in combination with novobiocin
[21] = UTBLP in combination with rifampicin
[22] = novobiocin in combination with the UTBLP
[23] = rifampicin in combination with the UTBLP

`CCCCCCCC(=O)NCCCC[C@H](NC(=O)CCCCCCC)C(=O)N[C@@H](CCCCN(C)C)C(=O)N[C@@H](CCCCN(C)C)C(=O)N[C@@H](CCCCN(C)C)C(=O)N[C@@H](CCCCN(C)C)C(N)=O` [UTBLP 7] (Octanoyl-K(Octanoyl)[Lys(Me2)][Lys(Me2)][Lys(Me2)][Lys(Me2)]-NH2) gave an MIC [1] of over 128 µg/mL, an MIC [2] of over 128 µg/mL and an MIC [3] of 64 µg/mL (≈ 62.6 µM). For the same compound, the Interpretation ([4]; UTBLP + chloramphenicol) was “Additive (0.5 < x ≤ 4 is additive)”, the MICUTBLP [4, 17] was 64 µg/mL and the “MICUTBLP [MICcombo]” value [4, 18] was 8 µg/mL. For the same compound, the “MICchloramphenicol [MICcombo]” value [4, 19] was 4 µg/mL, the MIC [5] was over 128 µg/mL and the Interpretation ([6]; UTBLP + novobiocin) was “Synergy (FICI ≤ 0.5 is synergistic)”. For the same compound, the Interpretation ([6]; UTBLP + rifampicin) was “Synergy (FICI ≤ 0.5 is synergistic)”, the MICUTBLP ([6]; plate with novobiocin) was 64 µg/mL and the MICUTBLP ([6]; plate with rifampicin) was 64 µg/mL. For the same compound, the “MICUTBLP [MICcombo]” value [6, 20] was 4 µg/mL, the “MICUTBLP [MICcombo]” value [6, 21] was 8 µg/mL and the “MICantibiotic [MICcombo]” value [6, 22] was 2 µg/mL. The “MICantibiotic [MICcombo]” value [6, 23] was 0.5 µg/mL, the Interpretation ([7]; UTBLP + novobiocin) was “Synergy (FICI ≤ 0.5 is synergistic)” and the Interpretation ([7]; UTBLP + rifampicin) was “Synergy (FICI ≤ 0.5 is synergistic)”. For the same compound, the MICUTBLP ([7]; plate with novobiocin) was 128 µg/mL, the MICUTBLP ([7]; plate with rifampicin) was 128 µg/mL and the “MICUTBLP [MICcombo]” value [7, 20] was 8 µg/mL. The “MICUTBLP [MICcombo]” value [7, 21] was 16 µg/mL, the “MICantibiotic [MICcombo]” value [7, 22] was 16 µg/mL and the “MICantibiotic [MICcombo]” value [7, 23] was 1 µg/mL. The Interpretation ([8]; UTBLP + chloramphenicol) was “Synergy (FICI ≤ 0.5 is synergistic)”, the Interpretation ([8]; UTBLP + niclosamide) was “Synergy (FICI ≤ 0.5 is synergistic)” and the Interpretation ([8]; UTBLP + novobiocin) was “Synergy (FICI ≤ 0.5 is synergistic)”. The Interpretation ([8]; UTBLP + rifampicin) was “Synergy (FICI ≤ 0.5 is synergistic)”, the MICUTBLP ([8]; plate with chloramphenicol) was 64 µg/mL and the MICUTBLP ([8]; plate with niclosamide) was 64 µg/mL. For the same compound, the MICUTBLP ([8]; plate with novobiocin) was 64 µg/mL, the MICUTBLP ([8]; plate with rifampicin) was 64 µg/mL and the “MICUTBLP [MICcombo]” value [8, 18] was 16 µg/mL. For the same compound, the “MICUTBLP [MICcombo]” value ([8]; UTBLP in combination with niclosamide) was 4 µg/mL, the “MICUTBLP [MICcombo]” value [8, 20] was 2 µg/mL and the “MICUTBLP [MICcombo]” value [8, 21] was 8 µg/mL. For the same compound, the “MICantibiotic [MICcombo]” value [8, 19] was 0.5 µg/mL, the “MICantibiotic [MICcombo]” value ([8]; niclosamide in combination with the UTBLP) was 1 µg/mL and the “MICantibiotic [MICcombo]” value [8, 22] was 2 µg/mL. The “MICantibiotic [MICcombo]” value [8, 23] was 0.125 µg/mL, the MIC [9] was 128 µg/mL (≈ 125 µM) and the MIC [10] was 32 µg/mL (≈ 31.3 µM). The MIC [11] was 32 µg/mL (≈ 31.3 µM), the MIC [12] was 64 µg/mL (≈ 62.6 µM) and the MIC [13] was 128 µg/mL (≈ 125 µM). The Interpretation ([14]; UTBLP + novobiocin) was “Synergy (FICI ≤ 0.5 is synergistic)”, the Interpretation ([14]; UTBLP + rifampicin) was “Synergy (FICI ≤ 0.5 is synergistic)” and the MICUTBLP ([14]; plate with novobiocin) was 128 µg/mL. The MICUTBLP ([14]; plate with rifampicin) was 128 µg/mL, the “MICUTBLP [MICcombo]” value [14, 20] was 4 µg/mL and the “MICUTBLP [MICcombo]” value [14, 21] was 8 µg/mL. The “MICantibiotic [MICcombo]” value [14, 22] was 0.5 µg/mL, the “MICantibiotic [MICcombo]” value [14, 23] was 0.063 µg/mL and the Interpretation ([15]; UTBLP + novobiocin) was “Synergy (FICI ≤ 0.5 is synergistic)”. The Interpretation ([15]; UTBLP + rifampicin) was “Synergy (FICI ≤ 0.5 is synergistic)”, the MICUTBLP ([15]; plate with novobiocin) was 32 µg/mL and the MICUTBLP ([15]; plate with rifampicin) was 32 µg/mL. For the same compound, the “MICUTBLP [MICcombo]” value [15, 20] was 1 µg/mL, the “MICUTBLP [MICcombo]” value [15, 21] was 8 µg/mL and the “MICantibiotic [MICcombo]” value [15, 22] was 0.25 µg/mL. For the same compound, the “MICantibiotic [MICcombo]” value [15, 23] was 0.125 µg/mL, the Interpretation ([16]; UTBLP + chloramphenicol) was “Additive (0.5 < x ≤ 4 is additive)” and the MICUTBLP [16, 17] was 128 µg/mL. For the same compound, the “MICUTBLP [MICcombo]” value [16, 18] was 0.25 µg/mL and the “MICchloramphenicol [MICcombo]” value [16, 19] was 4 µg/mL.
